The source made the active and inactive calls. The calls are words filed in the database; no cut-off is given here. Residues, ends and D or L forms follow the SMILES beside them.

For the test, the target named is T1, Thrombopoietin receptor (Homo sapiens) (UniProt P40238).
T1 sequence (whole entry): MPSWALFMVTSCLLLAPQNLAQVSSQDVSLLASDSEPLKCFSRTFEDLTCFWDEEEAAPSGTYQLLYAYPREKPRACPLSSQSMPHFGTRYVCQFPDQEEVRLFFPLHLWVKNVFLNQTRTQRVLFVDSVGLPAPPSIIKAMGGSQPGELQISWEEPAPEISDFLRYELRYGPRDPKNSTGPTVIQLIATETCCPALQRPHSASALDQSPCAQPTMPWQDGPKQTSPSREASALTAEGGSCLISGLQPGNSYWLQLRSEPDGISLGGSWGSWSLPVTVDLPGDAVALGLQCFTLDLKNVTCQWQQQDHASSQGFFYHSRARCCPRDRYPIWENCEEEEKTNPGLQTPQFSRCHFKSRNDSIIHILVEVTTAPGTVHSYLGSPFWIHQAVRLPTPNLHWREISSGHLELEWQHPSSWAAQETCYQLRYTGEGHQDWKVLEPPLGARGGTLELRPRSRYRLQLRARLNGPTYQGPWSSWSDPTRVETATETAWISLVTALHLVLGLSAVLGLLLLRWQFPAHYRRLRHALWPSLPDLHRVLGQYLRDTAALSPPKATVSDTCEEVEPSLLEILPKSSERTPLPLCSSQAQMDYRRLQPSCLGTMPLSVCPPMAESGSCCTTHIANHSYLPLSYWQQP
In words: Binding affinity to c-Mpl (unknown origin) expressed in […] NIH-3T3 cells after 48 hrs by dual-glo luciferase reporter gene assay relative to control. The format is cell-based. The settings on record: NIH3T3.

As for `CC[C@H](C)[C@H](N)C(=O)N[C@@H](CCC(=O)O)C(=O)NCC(=O)N1CCC[C@H]1C(=O)N[C@H](C(=O)N[C@@H](CC(C)C)C(=O)N[C@@H](CCCNC(=N)N)C(=O)N[C@@H](CCC(N)=O)C(=O)N[C@@H](Cc1c[nH]c2ccccc12)C(=O)N[C@@H](CC(C)C)C(=O)N[C@@H](C)C(=O)N[C@@H](C)C(=O)N[C@@H](CCCNC(=N)N)C(=O)N[C@@H](C)C(=O)NCC(=O)NCC(=O)N1CCC[C@H]1C(=O)N[C@@H](CO)C(=O)NCC(=O)N[C@H](C(=O)N[C@@H](CCC(=O)O)C(=O)NCC(=O)N1CCC[C@H]1C(=O)N[C@H](C(=O)N[C@@H](CC(C)C)C(=O)N[C@@H](CCCNC(=N)N)C(=O)N[C@@H](CCC(N)=O)C(=O)N[C@@H](Cc1c[nH]c2ccccc12)C(=O)N[C@@H](CC(C)C)C(=O)N[C@@H](C)C(=O)N[C@@H](C)C(=O)N[C@@H](CCCNC(=N)N)C(=O)N[C@@H](C)C(=O)O)[C@@H](C)O)[C@@H](C)CC)[C@@H](C)O` (H-IEGPTLRQWLAARAGGPSGIEGPTLRQWLAARA-OH), the result was Active.
With `CC[C@H](C)[C@H](N)C(=O)N[C@@H](CCC(=O)O)C(=O)NCC(=O)N1CCC[C@H]1C(=O)N[C@H](C(=O)N[C@@H](CC(C)C)C(=O)N[C@@H](CCCNC(=N)N)C(=O)N[C@@H](CCC(N)=O)C(=O)N[C@@H](Cc1c[nH]c2ccccc12)C(=O)N[C@@H](CC(C)C)C(=O)N[C@@H](C)C(=O)N[C@@H](C)C(=O)N[C@@H](CCCNC(=N)N)C(=O)N[C@@H](C)C(=O)NCC(=O)NCC(=O)NCC(=O)NCC(=O)N[C@@H](CO)C(=O)NCC(=O)NCC(=O)NCC(=O)N[C@@H](CO)C(=O)NCC(=O)N[C@H](C(=O)N[C@@H](CCC(=O)O)C(=O)NCC(=O)N1CCC[C@H]1C(=O)N[C@H](C(=O)N[C@@H](CC(C)C)C(=O)N[C@@H](CCCNC(=N)N)C(=O)N[C@@H](CCC(N)=O)C(=O)N[C@@H](Cc1c[nH]c2ccccc12)C(=O)N[C@@H](CC(C)C)C(=O)N[C@@H](C)C(=O)N[C@@H](C)C(=O)N[C@@H](CCCNC(=N)N)C(=O)N[C@@H](C)C(=O)O)[C@@H](C)O)[C@@H](C)CC)[C@@H](C)O` (H-IEGPTLRQWLAARAGGGGSGGGSGIEGPTLRQWLAARA-OH), the result was Active.
With `CC[C@H](C)[C@H](N)C(=O)N[C@@H](CCC(=O)O)C(=O)NCC(=O)N1CCC[C@H]1C(=O)N[C@H](C(=O)N[C@@H](CC(C)C)C(=O)N[C@@H](CCCNC(=N)N)C(=O)N[C@@H](CCC(N)=O)C(=O)N[C@@H](Cc1c[nH]c2ccccc12)C(=O)N[C@@H](CC(C)C)C(=O)N[C@@H](C)C(=O)N[C@@H](C)C(=O)N[C@@H](CCCNC(=N)N)C(=O)N[C@@H](C)C(=O)NCC(=O)NCC(=O)NCC(=O)N[C@@H](CO)C(=O)NCC(=O)N[C@H](C(=O)N[C@@H](CCC(=O)O)C(=O)NCC(=O)N1CCC[C@H]1C(=O)N[C@H](C(=O)N[C@@H](CC(C)C)C(=O)N[C@@H](CCCNC(=N)N)C(=O)N[C@@H](CCC(N)=O)C(=O)N[C@@H](Cc1c[nH]c2ccccc12)C(=O)N[C@@H](CC(C)C)C(=O)N[C@@H](C)C(=O)N[C@@H](C)C(=O)N[C@@H](CCCNC(=N)N)C(=O)N[C@@H](C)C(=O)O)[C@@H](C)O)[C@@H](C)CC)[C@@H](C)O` (H-IEGPTLRQWLAARAGGGSGIEGPTLRQWLAARA-OH), the result was Active.
